Source: US20230000842A1, “METHODS OF TREATING CARTILAGE DISORDERS THROUGH INHIBITION OF CLK AND DYRK” (SAMUMED, LLC, priority 2019, published 2023)

Columns and labels:
CLK2 kinase = CLK2 kinase (Homo sapiens, UniProt P49760); assay: CLK2 kinase activity assay (Z-lyte FRET); assay type: biochemical; conditions: Z-lyte Ser/Thr 6 peptide, 60 μM ATP, 1 h at room temperature;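 also: FRET read-out as coumarin to fluorescein emission ratio, unphosphorylated peptide as 0% and phosphorylated peptide as 100% controls, duplicate reactions, non-linear regression fit of dose-response curves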
Chain of CLK2 kinase (P49760 whole entry): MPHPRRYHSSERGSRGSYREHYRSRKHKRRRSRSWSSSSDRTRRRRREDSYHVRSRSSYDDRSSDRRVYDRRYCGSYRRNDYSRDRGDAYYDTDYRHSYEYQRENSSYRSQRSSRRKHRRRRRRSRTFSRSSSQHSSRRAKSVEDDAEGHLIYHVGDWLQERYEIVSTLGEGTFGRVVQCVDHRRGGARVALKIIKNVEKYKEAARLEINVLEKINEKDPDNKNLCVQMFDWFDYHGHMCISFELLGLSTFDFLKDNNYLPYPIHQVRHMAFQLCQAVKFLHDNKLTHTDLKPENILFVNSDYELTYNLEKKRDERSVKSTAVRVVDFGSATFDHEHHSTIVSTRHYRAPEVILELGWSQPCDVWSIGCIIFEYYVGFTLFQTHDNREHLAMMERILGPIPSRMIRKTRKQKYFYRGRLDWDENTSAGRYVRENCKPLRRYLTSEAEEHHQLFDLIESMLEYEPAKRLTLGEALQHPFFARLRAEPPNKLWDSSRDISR

[1] = system: primary human mesenchymal stem cells (hMSCs); assay: Chondrogenesis screening using primary human mesenchymal stem cells; assay type: cell-based; conditions: Homo sapiens, Mesenchymal stem cells, hMSC chondrogenesis; for EC50: concentration required to induce 50% levels of chondrogenesis with TGF-β3 as positive control, read-out: Conc (nM) of 50% TGF-β3 activity; for Emax: maximum activity relative to TGF-β3 (10 ng/mL) positive control, read-out: Max. Activity as % TGF-β3 activity
Description: Representative compounds were screened using primary human mesenchymal stem cells (hMSCs) to determine their ability to induce chondrogenesis (process by which cartilage is developed).
Human Mesenchymal Stem Cell Culture: Primary human mesenchymal stem cells (hMSCs) were purchased from Lonza (Walkersville, Md.) and expanded in Mesenchymal Stem Cell Growth Media (Lonza). Cells between passage 3 and 6 were used for the experiments.
Area of nodules in each well was normalized to the average of 3 DMSO treated wells on the same plate using Excel (Microsoft Inc.). The normalized averages (fold change over DMSO) of 2 or 3 replicate wells for each compound concentration were calculated. Due to solubility limitations of some of the compounds, curve fitting was incomplete leading to inaccurate EC50 determinations.
Using TGF-β3 as a positive control, the concentration of representative compounds required to induce 50% levels of chondrogenesis is reported. In addition, the maximum activity of each compound and the respective dose that each compound reached maximum chondrogenesis activity is reported.

[2] = system: Wnt pathway activity (SW480 colon carcinoma cells stably expressing the Sp5-Luc reporter); assay: Wnt pathway activity screening assay (Sp5-Luc reporter gene assay); conditions: Homo sapiens, SW480, Table 4; SW480 cells stably expressing Sp5-Luc reporter, 10-point dose-response from 10 μM, 36 to 48 hours
CLK3 kinase = CLK3 kinase (Homo sapiens, UniProt P49761); assay: CLK3 kinase activity assay (Z-lyte FRET); assay type: biochemical; conditions: Z-lyte Ser/Thr 18 peptide, 156 μM ATP, 1 h at room temperature;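 also: kinase activity read as coumarin/fluorescein emission ratio by FRET, unphosphorylated peptide as 0% and phosphorylated peptide as 100% control, values from non-linear regression of dose-response curves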
Chain of CLK3 kinase (P49761 whole entry): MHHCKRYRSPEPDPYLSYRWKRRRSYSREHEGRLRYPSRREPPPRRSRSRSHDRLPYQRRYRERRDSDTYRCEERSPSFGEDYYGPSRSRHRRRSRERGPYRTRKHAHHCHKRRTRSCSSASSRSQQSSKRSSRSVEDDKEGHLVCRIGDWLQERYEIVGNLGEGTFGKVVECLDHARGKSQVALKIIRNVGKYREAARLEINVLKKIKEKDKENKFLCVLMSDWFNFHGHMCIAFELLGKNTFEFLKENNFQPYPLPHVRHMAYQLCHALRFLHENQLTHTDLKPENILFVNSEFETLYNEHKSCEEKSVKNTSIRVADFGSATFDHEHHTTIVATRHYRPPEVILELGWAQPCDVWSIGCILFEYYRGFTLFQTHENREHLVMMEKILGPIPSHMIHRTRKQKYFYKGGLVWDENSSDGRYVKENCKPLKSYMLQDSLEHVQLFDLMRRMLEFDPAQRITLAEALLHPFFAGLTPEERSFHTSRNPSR

SMILES	EC50 (CLK2 kinase) [nM]	EC50 [1] [nM]	Emax [1] [%]	EC50 [2] [nM]	EC50 (CLK3 kinase) [nM]
COc1cncc(C(=O)Nc2c[nH]nc2C(=O)Nc2ccc(OCCN3CCCC3)nc2)c1 [compound 5]	20	10	106	22.3	4930
COc1cncc(C(=O)Nc2c[nH]nc2C(=O)Nc2ccc(N3CCNCC3)nc2)c1 [compound 7]	14	–	90.7	681	2360
Cc1n[nH]c2ccc(-c3cncc(OC[C@H](N)Cc4ccccc4)n3)cc12 [compound 52]	2	30	52.1	253	361
COc1ccc(NC(=O)c2n[nH]c3ccc(-c4cncc(CN5CCCC5)c4)cc23)cn1 [compound 71]	2	30	63.1	50	109
COc1ccc(NC(=O)c2n[nH]c3ccc(-c4cncc(CN5CCC(F)(F)C5)c4)cc23)cn1 [compound 72]	2	100	72.2	5	22
CN1CCN(c2ccc(NC(=O)c3n[nH]c4ccc(-c5cncc(CN6CCC(F)(F)C6)c5)cc34)cn2)CC1 [compound 73]	1	30	80.9	4	11
Cc1ccc(NC(=O)c2n[nH]c3ccc(-c4cncc(CN5CCCCC5)c4)cc23)cn1 [compound 78]	1	30	102	57	44
Cc1cncc(NC(=O)c2n[nH]c3ccc(-c4cncc(CN5CCCCC5)c4)cc23)c1 [compound 79]	1	300	68.3	59	352
O=C(Nc1ccnc(C(F)(F)F)c1)c1n[nH]c2ccc(-c3cncc(CN4CCCCC4)c3)cc12 [compound 80]	3	100	69	36.4	93
COc1ccc(NC(=O)c2n[nH]c3ccc(-c4cncc(CN5CCCCC5)c4)cc23)cn1 [compound 81]	1	300	138	15	32
CC(C)Oc1ccc(NC(=O)c2n[nH]c3ccc(-c4cncc(CN5CCCCC5)c4)cc23)cn1 [compound 82]	13	10	51.9	41	616
CC(C)CC(=O)Nc1ccncc1NC(=O)c1n[nH]c2ccc(-c3cncc(CN4CCCCC4)c3)cc12 [compound 85]	7	–	45.4	25	1800
O=C(Nc1cnccc1NC(=O)C1CC1)c1n[nH]c2ccc(-c3cncc(CN4CCCCC4)c3)cc12 [compound 86]	3	30	53.7	120	1270
C[C@@H]1CN(c2ccc(NC(=O)c3n[nH]c4ccc(-c5cncc(CN6CCCCC6)c5)cc34)cn2)C[C@H](C)O1 [compound 92]	1	2700	129	2.8	89
O=C(Nc1ccnnc1)c1n[nH]c2ccc(-c3cncc(CN4CCCCC4)c3)cc12 [compound 94]	1	–	–	40	11
O=C(Nc1cnccn1)c1n[nH]c2ccc(-c3cncc(CN4CCCCC4)c3)cc12 [compound 95]	1	–	–	289	46
O=C(Nc1ccc2c(c1)OCCO2)c1n[nH]c2ccc(-c3cncc(CN4CCCCC4)c3)cc12 [compound 97]	1	–	–	125	60
CC1CCN(Cc2cncc(-c3ccc4[nH]nc(C(=O)Nc5cccnc5)c4c3)c2)CC1 [compound 98]	1	30	94.4	7	86
Cc1ncc(NC(=O)c2n[nH]c3ccc(-c4cnc(C)n4C)cc23)s1 [compound 115]	1	–	–	335	99
O=C(Nc1nc2c(-c3cccc(F)c3)cncc2[nH]1)c1n[nH]c2ccc(-c3cccnc3)cc12 [compound 119]	5	100	157	6	48

SMILES	EC50 (CLK2 kinase) [nM]	EC50 [1] [nM]	Emax [1] [%]	EC50 [2] [nM]	EC50 (CLK3 kinase) [nM]
CCC(=O)Nc1cncc(-c2ccc3[nH]nc(-c4nc5c(-c6cccc(F)c6)cncc5[nH]4)c3c2)c1 [compound 120]	23	30	139	4.6	61
CCC(=O)Nc1cncc(-c2ccc3[nH]nc(-c4nc5c(-c6cccc(F)c6)ccnc5[nH]4)c3n2)c1 [compound 121]	3	–	29.3	> 10000	30
CCCC(=O)Nc1cncc(-c2cc3c(-c4nc5c(-c6cccc(F)c6)nccc5[nH]4)n[nH]c3cn2)c1 [compound 122]	11	10	67.8	18.8	6960
CC(C)CC(=O)Nc1cncc(-c2ccc3[nH]nc(-c4nc5c(-c6cccc(F)c6)ccnc5[nH]4)c3c2)c1 [compound 124]	37	–	61	1.4	218
O=C(Nc1cncc(-c2cnc3[nH]nc(-c4nc5c(-c6cccc(F)c6)cncc5[nH]4)c3c2)c1)C1CC1 [compound 126]	12	10	148	11	7330
O=C(Nc1cncc(-c2cnc3[nH]nc(-c4nc5c(-c6cccc(F)c6)cncc5[nH]4)c3c2)c1)N1CCOCC1 [compound 127]	6	–	96.8	9	42
O=C(CC1CCNCC1)Nc1cncc(-c2cc3c(-c4nc5c(-c6cccc(F)c6)ccnc5[nH]4)n[nH]c3cn2)c1 [compound 128]	2	–	54.7	345	28
O=C(Cc1ccccc1)Nc1cncc(-c2ccc3[nH]nc(-c4nc5c(-c6cccc(F)c6)cncc5[nH]4)c3c2)c1 [compound 129]	53	100	124	23	164
CC(C)Nc1cncc(-c2cnc3[nH]nc(-c4nc5c(-c6cccc(F)c6)cncc5[nH]4)c3c2)c1 [compound 131]	13	30	504	1.2	160
CN(C)c1cncc(-c2ccc3[nH]nc(-c4nc5c(-c6cccc(F)c6)cncc5[nH]4)c3n2)c1 [compound 132]	1	10	154	638	12
CN(C)c1cncc(-c2ccc3[nH]nc(-c4nc5c(-c6cccc(F)c6)ccnc5[nH]4)c3n2)c1 [compound 133]	2	10	83.8	659	37
CCNCc1cncc(-c2cnc3[nH]nc(-c4nc5c(-c6cccc(F)c6)cccc5[nH]4)c3c2)c1 [compound 134]	6	–	98.7	40.9	76
CN(C)CCOc1cncc(-c2cnc3[nH]nc(-c4nc5c(-c6cccc(F)c6)nccc5[nH]4)c3c2)c1 [compound 151]	1	–	–	253	55
CC(C)CC(=O)Nc1cncc(-c2ccc3[nH]nc(-c4nc5c(N6CCN(C)CC6)cccc5[nH]4)c3c2)c1 [compound 217]	3	–	–	268	40
Nc1cncc(-c2ccc3[nH]nc(-c4cc5c(-c6cccnc6)nccc5[nH]4)c3c2)c1 [compound 347]	2	–	–	146	18
CN1CCC(n2cc(C(=O)Nc3cc4cc(-c5cnn(C)c5)ccc4cn3)cn2)CC1 [compound 561]	1	–	–	14	6
CC(C)Nc1cncc(-c2ccc3cnc(NC(=O)C4CCN(CCF)CC4)cc3c2)n1 [compound 598]	8	–	–	178	52
O=C(Nc1cc2cc(-c3cncc(NC4CCNCC4)n3)ccc2cn1)C1CC(F)(F)C1 [compound 600]	3	–	–	381	78
O=C(Nc1cc2cc(-c3cncc(NCC4(F)CNC4)n3)ncc2cn1)C1CC1 [compound 615]	7	–	–	383	53
CNc1nc(NCc2ncccn2)c2c(-c3ccc4ncccc4c3)c[nH]c2n1 [compound 624]	10	–	–	73.3	26
